The values below come from ChEMBL document CHEMBL4020831, “Discovery of GDC-0853: A Potent, Selective, and Noncovalent Bruton's Tyrosine Kinase Inhibitor in Early Clinical Development” (J Med Chem, 2018).

One data set can be described thus: physchem. The following applies: buffer, pH 7.4.
Data set [1] addresses T1, Tyrosine-protein kinase BTK (Homo sapiens, UniProt Q06187). The experiment in a line: Inhibition of human recombinant C-terminal polyhistidine tagged BTK (1 to 659 residues)-mediated synthetic peptide substrate phosphorylation expressed in baculovirus-infected insect cells.
Data set [2] can be described thus: Clearance in human liver microsomes at 1 uM incubated up to 60 mins by LC-MS/MS method. It is filed as ADME, microsome. In general terms: Liver microsomes are vesicles of endoplasmic reticulum, rich in cytochrome P450 enzymes.
For data set [3], the target named is T1, Tyrosine-protein kinase BTK.
Description: Inhibition of BTK in human whole blood-derived CD19+ B cells assessed as suppression of anti-IgM stimulated-CD69 expression preincubated for 1 hr followed by IgM stimulation for 18 hrs by FACS analysis
A short description of data set [4]: Permeability across apical to basolateral in MDCK1 cells. It is filed as ADME, cell-based, Canis lupus familiaris. The following applies: dog, MDCK; read-out: permeability.
A short description of the next data set: in vitro. Particulars: dog, MDCK.

T1 sequence (Q06187 whole entry, the tested form may be a part): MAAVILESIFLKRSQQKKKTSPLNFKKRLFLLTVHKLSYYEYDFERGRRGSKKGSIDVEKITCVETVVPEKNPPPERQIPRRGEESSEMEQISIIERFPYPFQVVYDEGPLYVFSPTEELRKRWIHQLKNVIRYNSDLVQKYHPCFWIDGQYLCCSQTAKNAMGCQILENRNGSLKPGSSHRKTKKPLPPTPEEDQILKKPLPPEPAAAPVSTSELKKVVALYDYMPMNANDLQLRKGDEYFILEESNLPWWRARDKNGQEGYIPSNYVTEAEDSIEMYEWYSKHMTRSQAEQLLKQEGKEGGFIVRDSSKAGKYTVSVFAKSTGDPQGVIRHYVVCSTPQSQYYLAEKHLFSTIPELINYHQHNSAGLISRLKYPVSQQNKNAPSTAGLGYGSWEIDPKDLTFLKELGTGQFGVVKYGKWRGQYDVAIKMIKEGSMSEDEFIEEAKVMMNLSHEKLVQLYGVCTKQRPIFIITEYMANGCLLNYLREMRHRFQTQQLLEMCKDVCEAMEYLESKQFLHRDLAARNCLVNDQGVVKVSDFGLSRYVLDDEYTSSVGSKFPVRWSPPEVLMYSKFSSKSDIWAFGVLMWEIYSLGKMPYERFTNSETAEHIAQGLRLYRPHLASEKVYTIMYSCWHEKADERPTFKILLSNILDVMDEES
Description for in vitro: Efflux ratio of permeability in MDCK1 cells

For the compound `Cn1cc(-c2nccc(N3CCn4c(cc5c4CCCC5)C3=O)c2CO)cc(Nc2ccc(N3CCN(C4COC4)CC3)cn2)c1=O`, the logD – broadly, the decadic logarithm of the distribution of all forms, ionised or not, between an organic phase and buffer at a given pH – in the data set “physchem” came to 1.8. Further, the Ki (usually a dissociation constant, usually derived from enzyme kinetics or from competition with a known ligand) in data set [1] came to 6.9 nM. For the same compound, in data set [2], the CLhep predicted at 1 µM was 8 mL/min/kg. Further, it took 387 nM to reach half-maximal inhibition in data set [3] (IC50).
Consider `Cn1cc(-c2ccnc(N3Cc4cc(C(C)(C)C)sc4C3=O)c2CO)cc(Nc2ccc(N3CCN(C4COC4)CC3)cn2)c1=O`, for which the Ki in data set [1] is 1 nM. Moreover, the CLhep predicted at 1 µM in data set [2] is 10 mL/min/kg.
For `Cn1cc(-c2ccnc(N3CCc4c(sc5c4CC(C)(C)C5)C3=O)c2CO)cc(Nc2ccc(N3CCN(C4COC4)CC3)cn2)c1=O` the same measures were 0.58 nM and 13.5 mL/min/kg.
For `Cn1cc(-c2cncc(N3CCn4c(cc5c4CCCC5)C3=O)c2CO)cc(Nc2ccc(N3CCN(C4COC4)CC3)cn2)c1=O`, the pH-dependent lipophilicity (logD) in the data set “physchem” was found to be 1.9. Further, in data set [1], the inhibitory constant (Ki) was 6.3 nM. For the same compound, the CLhep predicted at 1 µM in data set [2] is 7.9 mL/min/kg. The IC50 (usually the concentration that gives 50% inhibition) in data set [3] is 64.4 nM.
For the compound `Cn1cc(-c2ccnc(N3CCn4c5c(c(F)c4C3=O)CCCC5)c2CO)cc(Nc2ccc(N3CCN(C4COC4)CC3)cn2)c1=O`, the Ki in data set [1] is 2.5 nM. Also, in data set [2], the CLhep predicted at 1 µM was 8.1 mL/min/kg.
`COCCCN1CCN(c2ccc(Nc3cc(-c4ccnc(N5CCn6c(cc7c6CC(C)(C)C7)C5=O)c4CO)cn(C)c3=O)nc2)CC1` returned a logD in the data set “physchem” of 3.3. Moreover, the Papp A→B in data set [4] amounted to 9 ×10⁻⁶ cm/s. Also, the Ki in data set [1] amounted to 1 nM. In addition, in data set [2], the CLhep predicted at 1 µM was 12 mL/min/kg. Moreover, the efflux ratio (usually a quotient of directional permeabilities that is used to spot active efflux) in “in vitro” amounted to 1.3. Further, in data set [3], the half-inhibitory concentration (IC50) stood at 32.2 nM.
In the data set “physchem”, `Cn1cc(-c2ccnc(N3CCn4c(cc5c4CCCC5)C3=O)c2CO)cc(Nc2ccc(N3CCN(C4COC4)CC3)cn2)c1=O` displayed a logD of 2. For the same compound, the Ki in data set [1] was determined as 1.8 nM. Besides, the CLhep predicted at 1 µM in data set [2] was 8.1 mL/min/kg. The compound also had an IC50 in data set [3] of 54.9 nM.
On to `Cn1cc(-c2ccnc(N3CCn4c(cc5c4CC(C)(C)C5)C3=O)c2CO)cc(Nc2ccc(N3CCN(CCC(F)(F)F)CC3)cn2)c1=O`, for which, in “physchem”, the logD stood at 4.4. In data set [4], the Papp A→B amounted to 14.2 ×10⁻⁶ cm/s. In addition, the Ki in data set [1] was found to be 4 nM. The CLhep predicted at 1 µM in data set [2] was 16 mL/min/kg. For the same compound, the efflux ratio in “in vitro” came out at 0.6. In addition, the IC50 in data set [3] came to 116 nM.
In the case of `CC(=O)N1CCN(c2ccc(Nc3cc(-c4ccnc(N5CCn6c(cc7c6CC(C)(C)C7)C5=O)c4CO)cn(C)c3=O)nc2)CC1`, the logD in the data set “physchem” was 2.9. In addition, the Papp A→B in data set [4] was determined as 11.1 ×10⁻⁶ cm/s. Further, the inhibitory constant (Ki) in data set [1] was found to be 1.8 nM. Also, the CLhep predicted at 1 µM in data set [2] was 8.8 mL/min/kg. The efflux ratio in “in vitro” turned out to be 1.2. The IC50 in data set [3] worked out at 66.5 nM.
For the compound `Cn1cc(-c2ccnc(N3CCc4c(sc5c4CCCC5)C3=O)c2CO)cc(Nc2ccc(N3CCN(C4COC4)CC3)cn2)c1=O`, the Ki in data set [1] came out at 5.97 nM. Moreover, the CLhep predicted at 1 µM in data set [2] is 13 mL/min/kg.
In the data set “physchem”, `C[C@@H]1CN(c2ccc(Nc3cc(-c4cc(F)cc(N5CCn6c(cc7c6CCCC7)C5=O)c4CO)cn(C)c3=O)nc2)CCN1C` returned a log distribution coefficient (logD) of 3.3. Further, the inhibitory constant (Ki) in data set [1] was 0.43 nM. The CLhep predicted at 1 µM in data set [2] was 13 mL/min/kg. This compound showed an IC50 in data set [3] of 12.7 nM.
On the same counts, the results for `C[C@H]1CN(C)CCN1c1ccc(Nc2cc(-c3cc(F)cc(N4CCn5c(cc6c5CCCC6)C4=O)c3CO)cn(C)c2=O)nc1` are 3.2, 0.65 nM, 14 mL/min/kg and 4.6 nM.
In the case of `Cn1cc(-c2ccnc(-n3ccn4c5c(cc4c3=O)CCCC5)c2CO)cc(Nc2ccc(N3CCN(C4COC4)CC3)cn2)c1=O`, the Ki in data set [1] came out at 4.2 nM. The CLhep predicted at 1 µM in data set [2] was 9.2 mL/min/kg.
In turn, `C[C@@H]1CN(C)CCN1c1ccc(Nc2cc(-c3cc(F)cc(N4CCn5c(cc6c5CCCC6)C4=O)c3CO)cn(C)c2=O)nc1` registered a pH-dependent lipophilicity (logD) in “physchem” of 3.1. Moreover, in data set [1], the Ki was determined as 0.37 nM. Besides, in data set [2], the CLhep predicted at 1 µM was 13 mL/min/kg. Also, the midpoint of inhibition in data set [3], the IC50, lay at 16.9 nM.
Turning to `Cn1cc(-c2ccnc(N3CCn4c(cc5c4CC(C)(C)C5)C3=O)c2CO)cc(Nc2ccc(N3CCN(C4CCOCC4)CC3)cn2)c1=O`, in data set [1], the inhibition constant (Ki) amounted to 0.45 nM. For the same compound, in data set [2], the CLhep predicted at 1 µM is 14 mL/min/kg. The compound further registered an IC50 in data set [3] of 31.6 nM.
In “physchem”, `COCCN1CCN(c2ccc(Nc3cc(-c4ccnc(N5CCn6c(cc7c6CC(C)(C)C7)C5=O)c4CO)cn(C)c3=O)nc2)CC1` returned a logD of 3.2. Also, the Papp A→B in data set [4] worked out at 12.5 ×10⁻⁶ cm/s. In addition, in data set [1], the inhibitory constant (Ki) was 1.2 nM. The CLhep predicted at 1 µM in data set [2] is 12 mL/min/kg. Besides, the efflux ratio in “in vitro” is 1. For the same compound, the IC50 in data set [3] is 36.6 nM.
Turning to `C[C@H]1CN(c2ccc(Nc3cc(-c4cc(F)cc(N5CCn6c(cc7c6CCCC7)C5=O)c4CO)cn(C)c3=O)nc2)CCN1C`, the logD in “physchem” worked out at 2.3. In data set [1], the Ki was 0.32 nM. Moreover, the CLhep predicted at 1 µM in data set [2] is 13 mL/min/kg. The compound also gave an IC50 in data set [3] of 27.5 nM.
Consider `Cn1cc(-c2ccnc(N3CCn4c(cc5c4CC(C)(C)C5)C3=O)c2CO)cc(Nc2ccc(C3CN(C4COC4)C3)cn2)c1=O`, for which the logD in “physchem” was 3. In data set [4], the Papp A→B is 48.5 ×10⁻⁶ cm/s. For the same compound, the Ki in data set [1] is 0.43 nM. The CLhep predicted at 1 µM in data set [2] was 16 mL/min/kg. In the data set “in vitro”, the efflux ratio was 0.4. Half-maximal inhibition in data set [3] (IC50) required 23.5 nM.
As to `CC(=O)N1CC2(C1)CN(c1ccc(Nc3cc(-c4ccnc(N5CCn6c(cc7c6CC(C)(C)C7)C5=O)c4CO)cn(C)c3=O)nc1)C2`, in “physchem”, the logD was 2.5. In data set [1], the Ki was 3.3 nM. Moreover, the CLhep predicted at 1 µM in data set [2] is 10 mL/min/kg. Besides, the half-maximal inhibitory concentration (IC50) in data set [3] worked out at 33.4 nM.
`CN1CCN(c2ccc(Nc3cc(-c4cc(F)cc(N5CCn6c(cc7c6CCCC7)C5=O)c4CO)cn(C)c3=O)nc2)CC1`: the pH-dependent lipophilicity (logD) in “physchem” stood at 3.1. In data set [2], the CLhep predicted at 1 µM is 15 mL/min/kg.
